Results on 16 molecules are retold here after patent US20250136558A1, “PYRAZINE COMPOUNDS AS IRREVERSIBLE INHIBITORS OF FLT3” (BIOMEA FUSION, INC., priority 2021, published 2025).

By IC50 is commonly meant the midpoint of a concentration-inhibition curve. The low end stands for inhibition by little substance, the high end for a need for much substance.

Common to all, as to type: cell-based
One test deals with MOLM-13. Kind of test: Proliferation inhibition (CellTiter-Glo) in MOLM-13 cells. As to conditions: Homo sapiens, 96 h, MOLM-13 AML cells, heterozygous FLT3-ITD, IC50 (4 days). The text has this:
(§1) The Proliferation Inhibitory Effect was Investigated in Human AML Cell Lines MOLM-13 (AddexBio: C0003003) [REF: Pubmed: 9305600] and MV-4-11 (ATCC: CRL-9591) [REF PMID: 3496132], and CML cell line […] (ATCC: CRL-3343) [REF PMID: 163658]. Molm-13 is heterozygous for FLT3-ITD mutation, while MV4-11 is homozygous for FLT3-ITD [PMID: 12529668]. […] Cells were maintained in RPMI-1640 medium (ThermoFisher catalog no. 61870036) supplemented with 10% of Heat Inactivated FBS (ThermoFisher catalog no.A31605) and 1% Pen-Strep (Thermofisher catalog no. 10378016) and cultured at 37° C. in a humidified incubator with 5% CO2. Cell lines were […], and the cells were maintained in a range 70%-80% confluency.
(§2) ATP is present in all metabolically active cells and is considered as a marker for cell viability and proliferation. Metabolic cell activity was determined using the CellTiter-Glo kit (Promega catalog no. G7572), an ATP monitoring system based on the production of luminescence by the reaction of ATP with added UltraGlo® recombinant luciferase (Kawano et al., 2016, PLOS One, 8; 11(7):e0158888), according to the supplier's experimental recommendations. The assay was based on a 96 well plate format.
(§3) Test compounds were dissolved at 10 mM in DMSO (Sigma catalog no. D8418; purity 299.9%) and stored at −20° C. Eight concentrations of test compound were assessed in duplicate in an individual test occasion in parallel in the selected cell lines. Gilteratinib and FF-10101 were used as reference compounds and tested in duplicate at eight concentrations. 100% of proliferation is represented by the untreated cells (0.2% DMSO).
(§4) On the day of the experiment (TO), cells were quantified with the cell viability analyser NucleoCounter (Chemometec NC-200) and diluted with fresh medium to obtain the cell density of about 10,000 cells per 200 μL medium. 200 μL of cell suspension were added into wells in the 96 well plate.
(§5) After 2 hours from seeding cells, compounds were added using a D300e compound dispenser (Life Sciences Tecan D300) at desired concentrations with shaking between each compound dispensed. Cell plates containing 200 μL/well suspension were incubated at 37° C. in a humidified incubator with […].
(§6) […] Contents were mixed for 5 min on an orbital shaker to induce cell lysis, and then incubated at room temperature for an additional 10 min in the dark to stabilize the luminescent signal. Luminescence was read by using a GloMax GM300 plate reader (Promega) using the luminescence for 96 well plate standard protocol.
(§7) Results were analysed by GraphPad (Prism) and IC50 values were calculated by non-linear regression using four parameter-logistic equation.
Background: ATP-based viability assays read luminescence as a measure of living cells.

In a further test the test system is MV-4-11. The experiment in a line: Proliferation inhibition (CellTiter-Glo) in MV-4-11 cells. The conditions noted are these: Homo sapiens, MV4-11, 96 h, MV-4-11 AML cells, homozygous FLT3-ITD, IC50 (4 days).
Excerpt: as §1, §2, §3, §4, §5, §6, §7

For the next test, the system named is K-562. Kind of test: Proliferation inhibition (CellTiter-Glo) in K-562 cells. The conditions noted are these: Homo sapiens, K562, 96 h, K-562 CML cells, no FLT3 mutations, IC50 (4 days).
Excerpt: as §1, §2, §3, §4, §5, §6, §7

Where only a bound is given, the exact number is not on record here.

Turning to `CC#CC(=O)N(C)[C@@H](C)C(=O)NCCc1cccc(Nc2nc(C3CC3)c(C)nc2C(N)=O)c1` [Compound 235, (S)-5-cyclopropyl-6-methyl-3-((3-(2-(2-(N-methylbut-2-ynamido)propanamido)ethyl)phenyl)amino)pyrazine-2-carboxamide], the IC50 was more than 500 nM in the test on MOLM-13, 10 to 100 nM with MV-4-11 and more than 500 nM with K-562.

With `CCc1nc(C(=O)NC)c(Nc2cc(F)cc(OCCCNC(=O)C(C)N(C)C(=O)/C=C/CN(C)C)c2)nc1N(C)C` (stereo not drawn) [Compound 151, (E)-5-(dimethylamino)-3-((3-(3-(2-(4-(dimethylamino)-N-methylbut-2-enamido)propanamido)propoxy)-5-fluorophenyl)amino)-6-ethyl-N-methylpyrazine-2-carboxamide], the IC50 in the test on MOLM-13, with MV-4-11 and in the test with K-562 was more than 500 nM each time.

As for `C[C@@H](C(=O)NCCCOc1cccc(Nc2nc(NC3CCOCC3)cnc2C(N)=O)c1)N(C)C(=O)/C=C/CN(C)C` [Compound 130, (S,E)-3-((3-(3-(2-(4-(dimethylamino)-N-methylbut-2-enamido)propanamido)propoxy)phenyl)amino)-5-((tetrahydro-2H-pyran-4-yl)amino)pyrazine-2-carboxamide], the figures for the IC50 in the test with MOLM-13, in the test with MV-4-11 and in the test on K-562 were 10 to 100 nM, 1 to 10 nM and more than 500 nM, respectively.

For the molecule `CCc1nc(C(N)=O)c(Nc2cccc(OCCCNC(=O)[C@H](C)N(C)C(=O)/C=C/CN(C)C)c2)nc1N(C)C1CCOCC1` [Compound 116, (S,E)-3-((3-(3-(2-(4-(dimethylamino)-N-methylbut-2-enamido)propanamido)propoxy)phenyl)amino)-6-ethyl-5-(methyl(tetrahydro-2H-pyran-4-yl)amino)pyrazine-2-carboxamide], the results for the IC50 in the test with MOLM-13, in the test with MV-4-11 and with K-562 were less than 1 nM, less than 1 nM and more than 500 nM, respectively.

As for `C=CC(=O)NCCNc1cc(Nc2nc(NC3CCOCC3)c(CC)nc2C(N)=O)ccn1` [Compound 20, 3-((2-((2-Acrylamidoethyl)amino)pyridin-4-yl)amino)-6-ethyl-5-((tetrahydro-2H-pyran-4-yl)amino)pyrazine-2-carboxamide], the IC50 in the test on MOLM-13 was 100 to 500 nM; with MV-4-11 it was 10 to 100 nM; with K-562, more than 500 nM.

Take `CCc1nc(C(N)=O)c(Nc2cc(F)cc(OCCCNC(=O)[C@H](C)N(C)C(=O)/C=C/CN(C)C)c2)nc1NC1CCOCC1` [Compound 129, (S,E)-3-((3-(3-(2-(4-(Dimethylamino)-N-methylbut-2-enamido)propanamido)propoxy)-5-fluorophenyl)amino)-6-ethyl-5-((tetrahydro-2H-pyran-4-yl)amino)pyrazine-2-carboxamide]: the IC50 in the test with MOLM-13 was less than 1 nM; with MV-4-11, less than 1 nM; in the test with K-562, more than 500 nM.

With `C=CS(=O)(=O)NCCCOc1cccc(Nc2nc(NC3CCOCC3)c(CC)nc2C(N)=O)c1` [Compound 4, 6-Ethyl-5-((tetrahydro-2H-pyran-4-yl)amino)-3-((3-(3-(vinylsulfonamido)propoxy)phenyl)-amino)pyrazine-2-carboxamide], the results for the IC50 with MOLM-13, in the test with MV-4-11 and in the test with K-562 were 100 to 500 nM, 100 to 500 nM and more than 500 nM, respectively.

Take `CC#CC(=O)N(C)[C@@H](C)C(=O)NCCCOc1cccc(Nc2nc(NC3CCOCC3)c(CC)nc2C(N)=O)c1` [Compound 114, 3-[3-[3-[[(2S)-2-[but-2-ynoyl(methyl)amino]propanoyl]amino]propoxy]anilino]-6-ethyl-5-(tetrahydropyran-4-ylamino)pyrazine-2-carboxamide]: the figures for the IC50 with MOLM-13, in the test on MV-4-11 and in the test on K-562 were 10 to 100 nM, 1 to 10 nM and more than 500 nM, respectively.

For `C=CC(=O)NCCC(=O)NCCc1cc(Nc2nc(NC3CCOCC3)c(CC)nc2C(N)=O)cc(OC)c1` [Compound 29, 3-((3-(2-(3-Acrylamidopropanamido)ethyl)-5-methoxyphenyl)amino)-6-ethyl-5-((tetrahydro-2H-pyran-4-yl)amino)pyrazine-2-carboxamide], the IC50 is 10 to 100 nM in the test with MOLM-13, 10 to 100 nM in the test with MV-4-11 and more than 500 nM with K-562.

Regarding `CCc1nc(C(N)=O)c(Nc2cccc(OCCNC(=O)[C@H](C)N(C)C(=O)/C=C/CN(C)C)c2)nc1NC1CCOCC1` [Compound 39, 3-[3-[2-[[(2S)-2-[[(E)-4-(dimethylamino)but-2-enoyl]-methyl-amino]propanoyl]amino]ethoxy]anilino]-6-ethyl-5-(tetrahydropyran-4-ylamino)pyrazine-2-carboxamide], the IC50 with MOLM-13 is 1 to 10 nM; in the test with MV-4-11 it was less than 1 nM; in the test on K-562, more than 500 nM.

For the molecule `CCc1nc(C(N)=O)c(Nc2cccc(OCCCNC(=O)[C@H](C)N(C)C(=O)/C=C/CN(C)C)c2)nc1NC1CCOCC1` [Compound 37, 3-[3-[3-[[(2S)-2-[[(E)-4-(dimethylamino)but-2-enoyl]-methyl-amino]propanoyl]amino]propoxy]anilino]-6-ethyl-5-(tetrahydropyran-4-ylamino)pyrazine-2-carboxamide], the IC50 with MOLM-13 is less than 1 nM; in the test on MV-4-11, less than 1 nM; with K-562, more than 500 nM.

Take `C#CC(=O)NCCCOc1cccc(Nc2nc(NC3CCOCC3)c(CC)nc2C(N)=O)c1` [Compound 7, 6-Ethyl-3-((3-(3-propiolamidopropoxy)phenyl)amino)-5-((tetrahydro-2H-pyran-4-yl)amino)pyrazine-2-carboxamide]: the IC50 in the test with MOLM-13 was in the range of 1 to 10 nM; in the test with MV-4-11 it was 10 to 100 nM; in the test on K-562, 100 to 500 nM.

With `CC#CC(=O)NCCCOc1cccc(Nc2nc(NC3CCOCC3)c(CC)nc2C(N)=O)c1` [Compound 8, 3-((3-(3-(But-2-ynamido)propoxy)phenyl)amino)-6-ethyl-5-((tetrahydro-2H-pyran-4-yl)amino)pyrazine-2-carboxamide], the concentration for half-maximal inhibition (IC50) is 100 to 500 nM in the test on MOLM-13, more than 500 nM in the test on MV-4-11 and more than 500 nM with K-562.

For the molecule `C#CC(=O)NCCCNc1cc(Nc2nc(NC3CCOCC3)c(CC)nc2C(N)=O)ccn1` [Compound 25, 6-Ethyl-3-((2-((3-propiolamidopropyl)amino)pyridin-4-yl)amino)-5-((tetrahydro-2H-pyran-4-yl)amino)pyrazine-2-carboxamide], the half-maximal inhibitory concentration (IC50) in the test with MOLM-13 was in the range of 10 to 100 nM; in the test on MV-4-11, 1 to 10 nM; with K-562, 100 to 500 nM.

As to `C#CC(=O)N(C)CCCC(=O)NCCc1cc(Nc2nc(NC3CCOCC3)c(CC)nc2C(N)=O)cc(OC)c1` [Compound 32, 6-ethyl-3-[3-methoxy-5-[2-[4-[methyl(prop-2-ynoyl)amino]butanoylamino]ethyl]anilino]-5-(tetrahydropyran-4-ylamino)pyrazine-2-carboxamide], the IC50 is 1 to 10 nM in the test with MOLM-13, less than 1 nM in the test on MV-4-11 and more than 500 nM with K-562.

For `CCc1nc(C(N)=O)c(Nc2cccc(OCCCNC(=O)[C@H](C)N(C)C(=O)/C=C/CN3CCC3)c2)nc1NC1CCOCC1` [Compound 134, (S,E)-3-((3-(3-(2-(4-(azetidin-1-yl)-N-methylbut-2-enamido)propanamido)propoxy)phenyl)amino)-6-ethyl-5-((tetrahydro-2H-pyran-4-yl)amino)pyrazine-2-carboxamide], the IC50 was 1 to 10 nM with MOLM-13, less than 1 nM in the test with MV-4-11 and more than 500 nM with K-562.
